Where two headings read alike, the source gives them in different places.
Tests used:
WEE1 = target: T1, WEE1 (Homo sapiens, UniProt P30291+Q96SW2); experiment: WEE1-ePL degradation assay (LentiX-WEE1-ePL-GSPT1-ND cells, InCELL Hunter luminescence, 4 h); assay type: cell-based; settings: 293T-LentiX WEE1-ePL cells; for DC50: read-out: 293T-LentiX WEE1-ePL Degradation 4 hr (EC50)
T1 construct: C-terminal ePL-tagged (DiscoverX, Fremont, CA) full-length WEE1 expression construct; expressed in transfected cells; host or cells: LentiX-HEK293T (Invitrogen), lentiviral transduction; co-expressing GSPT1-GN (G576N, lacking the first 158 amino acids)
Procedure, shortened: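 Degradation EC50 was fitted by a four-parameter logistic model, with the upper limit taken from DMSO wells. Luminescence was read with InCELL Hunter reagent after 30 min at room temperature, following a 4 h, 37° C exposure of 2500 cells/well. Cells were LentiX-HEK293T carrying ePL-tagged full-length WEE1, dosed in 10 points (3-fold) from 1 or 10 uM.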

MKN45 cells = experiment: MKN45 cell proliferation assay (Cell-Titer-Glo, 120 h); assay type: cell-based; settings: for EC50: Homo sapiens, MKN-45, 120 h, Cell-Titer-Glo, read-out: MKN45 Cell Prolif. 120 hr (EC50); for MKN45 Cell Prolif. 120 hr (Ymin-Obs): minimal percent of DMSO control observed in the concentrations tested
Procedure, shortened: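 Growth inhibition was read as blank-corrected Cell-Titer-Glo luminescence expressed as percent DMSO control after 120 h at 37 C, 400 cells/well. Compounds tested in triplicate as 10-point half-log series from 1 or 10 uM, 0.1% DMSO; four-parameter fit gave EC50, and lowest observed percent control was reported as Ymin-obs.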

[1] = lower limit of the fit (0 = luciferase inhibitor, Ymax = DMSO control)

SMILES	293T-LentiX WEE1-ePL Degradation 4 hr (Ymin) (WEE1; [1])	DC50 (WEE1) [nM]	EC50 (MKN45 cells; growth inhibition) [nM]	MKN45 Cell Prolif. 120 hr (Ymin-Obs) (MKN45 cells)	293T-LentiX WEE1-ePL Degradation 4 hr (Ymin) (WEE1; lower limit of the fit (Ymin=0 luciferase inhibitor, Ymax DMSO control))	EC50 (MKN45 cells) [nM]
O=C1CCC(N2Cc3cc(O[C@H]4CCN(Cc5ccc6nc(N7C[C@H]8COC[C@H]8C7)ncc6c5)C4)ccc3C2=O)C(=O)N1 (stereo partly drawn) [3-(5-{[(3S)-1-({2-[(3aR,6aS)-hexahydro-1H-furo[3,4-c]pyrrol-5-yl]quinazolin-6-yl}methyl)pyrrolidin-3-yl]oxy}-1-oxo-2,3-dihydro-1H-isoindol-2-yl)piperidine-2,6-dione]	38	14	13	12.43	–	–
CC1(C)COCCN1c1ncc2cc(CN3CC[C@H](Oc4ccc5c(c4)CN(C4CCC(=O)NC4=O)C5=O)C3)ccc2n1 (stereo partly drawn) [3-(5-{[(3S)-1-{[2-(3,3-dimethylmorpholin-4-yl)quinazolin-6-yl]methyl}pyrrolidin-3-yl]oxy}-1-oxo-2,3-dihydro-1H-isoindol-2-yl)piperidine-2,6-dione]	31.5	4.82	17.6	17.3	–	–
COC[C@H]1CC[C@@H](c2ccc3cc(CN4CC[C@H](Oc5ccc6c(c5)CN(C5CCC(=O)NC5=O)C6=O)C4)ccc3n2)CC1 (stereo partly drawn) [3-(1-oxo-5-{[(3S)-1-({2-[(1s,4s)-4-(methoxymethyl)cyclohexyl]quinolin-6-yl}methyl)pyrrolidin-3-yl]oxy}-2,3-dihydro-1H-isoindol-2-yl)piperidine-2,6-dione]	28.9	1.22	2.66	12.53	–	–
O=C1CCC(N2Cc3ccc(O[C@H]4CCN(Cc5cc6ccccc6cn5)C4)cc3C2=O)C(=O)N1 (stereo partly drawn) [3-(6-{[(3S)-1-[(isoquinolin-3-yl)methyl]pyrrolidin-3-yl]oxy}-1-oxo-2,3-dihydro-1H-isoindol-2-yl)piperidine-2,6-dione]	93.8	–	0.399	82.45	–	–
O=C1CCC(N2Cc3cc(O[C@H]4CCN(Cc5ccc6nc(N7CC[C@@]78CCOC8)ccc6c5)C4)ccc3C2=O)C(=O)N1 (stereo partly drawn) [3-(5-{[(3S)-1-({2-[(4S)-6-oxa-1-azaspiro[3.4]octan-1-yl]quinolin-6-yl}methyl)pyrrolidin-3-yl]oxy}-1-oxo-2,3-dihydro-1H-isoindol-2-yl)piperidine-2,6-dione]	40	6.07	6.53	7.225	–	–
O=C1CCC(N2Cc3cc(O[C@H]4CCN(Cc5cc(-c6ccc(C7CCOCC7)cc6)ccn5)C4)ccc3C2=O)C(=O)N1 (stereo partly drawn) [3-(5-{[(3S)-1-({4-[4-(oxan-4-yl)phenyl]pyridin-2-yl}methyl)pyrrolidin-3-yl]oxy}-1-oxo-2,3-dihydro-1H-isoindol-2-yl)piperidine-2,6-dione]	31	1.33	0.192	6.39	–	–
CO[C@H]1CCCN(c2ccc3cc(CN4CC[C@H](Oc5ccc6c(c5)CN(C5CCC(=O)NC5=O)C6=O)C4)ccc3n2)C1 (stereo partly drawn) [3-(5-{[(3S)-1-({2-[(3S)-3-methoxypiperidin-1-yl]quinolin-6-yl}methyl)pyrrolidin-3-yl]oxy}-1-oxo-2,3-dihydro-1H-isoindol-2-yl)piperidine-2,6-dione]	34	5.83	5.29	10.12	–	–
O=C1CCC(N2Cc3cc(O[C@H]4CCN(Cc5ccc6c(c5)CCCN6)C4)ccc3C2=O)C(=O)N1 (stereo partly drawn) [3-(1-oxo-5-{[(3S)-1-[(1,2,3,4-tetrahydroquinolin-6-yl)methyl]pyrrolidin-3-yl]oxy}-2,3-dihydro-1H-isoindol-2-yl)piperidine-2,6-dione]	79	3330	> 10000	93.175	–	–
O=C1CC[C@H](N2Cc3cc(O[C@H]4CCN(Cc5cc(N6CCC6)c6nc(C7CCOCC7)ccc6c5)C4)ccc3C2=O)C(=O)N1 [(3S)-3-(5-{[(3S)-1-{[8-(azetidin-1-yl)-2-(oxan-4-yl)quinolin-6-yl]methyl}pyrrolidin-3-yl]oxy}-1-oxo-2,3-dihydro-1H-isoindol-2-yl)piperidine-2,6-dione]	–	26	–	3.155	33.36	10.8
O=C1CCC(N2Cc3cc(O[C@H]4CCN(Cc5cncc6c5CCCO6)C4)ccc3C2=O)C(=O)N1 (stereo partly drawn) [3-(1-oxo-5-{[(3S)-1-({2H,3H,4H-pyrano[2,3-c]pyridin-5-yl}methyl)pyrrolidin-3-yl]oxy}-2,3-dihydro-1H-isoindol-2-yl)piperidine-2,6-dione]	29.38	24.6	69.9	11.03	–	–
O=C1CC[C@@H](N2Cc3cc(O[C@H]4CCN(Cc5ccc6nc(C7CCOCC7)ccc6c5)C4)ccc3C2=O)C(=O)N1 [(3R)-3-(5-{[(3S)-1-{[2-(oxan-4-yl)quinolin-6-yl]methyl}pyrrolidin-3-yl]oxy}-1-oxo-2,3-dihydro-1H-isoindol-2-yl)piperidine-2,6-dione]	33	6.75	6.12	9.677	–	–
[2H]c1nc2ccccc2cc1CN1CCC(Oc2ccc3c(c2)CN(C2CCC(=O)NC2=O)C3=O)C1 [3-(1-oxo-5-{[(3S)-1-{[(2-^2H)quinolin-3-yl]methyl}pyrrolidin-3-yl]oxy}-2,3-dihydro-1H-isoindol-2-yl)piperidine-2,6-dione]	25.75	8.41	28.5	9.675	–	–
O=C1CCC(N2Cc3cc(O[C@@H]4CN(Cc5ccc6nc(C7CCOCC7)ccc6c5)C[C@H]4F)ccc3C2=O)C(=O)N1 (stereo partly drawn) [3-(5-{[(3R,4R)-4-fluoro-1-{[2-(oxan-4-yl)quinolin-6-yl]methyl}pyrrolidin-3-yl]oxy}-1-oxo-2,3-dihydro-1H-isoindol-2-yl)piperidine-2,6-dione]	36.81	14.6	28.6	30.89	–	–
O=C1CCC(N2Cc3cc(O[C@H]4CCN(Cc5ccc6nc(CF)ccc6c5)C4)ccc3C2=O)C(=O)N1 (stereo partly drawn) [3-(5-{[(3S)-1-{[2-(fluoromethyl)quinolin-6-yl]methyl}pyrrolidin-3-yl]oxy}-1-oxo-2,3-dihydro-1H-isoindol-2-yl)piperidine-2,6-dione]	26.21	1.62	11.8	10.025	–	–
CNc1ccc2cc(CN3CC[C@H](Oc4ccc5c(c4)CN(C4CCC(=O)NC4=O)C5=O)C3)ccc2n1 (stereo partly drawn) [3-(5-{[(3S)-1-{[2-(methylamino)quinolin-6-yl]methyl}pyrrolidin-3-yl]oxy}-1-oxo-2,3-dihydro-1H-isoindol-2-yl)piperidine-2,6-dione]	31.06	7.21	21.8	9.31	–	–
O=C1CCC(N2Cc3ccc(O[C@H]4CCN(Cc5cnc6ccccc6c5)C4)cc3C2=O)C(=O)N1 (stereo partly drawn) [3-(1-oxo-6-{[(3S)-1-[(quinolin-3-yl)methyl]pyrrolidin-3-yl]oxy}-2,3-dihydro-1H-isoindol-2-yl)piperidine-2,6-dione]	27.98	8.74	42.4	12.43	–	–

Source: US20240067632A1, “WEE1 Degrading Compounds and Uses Thereof” (Bristol-Myers Squibb Company, priority 2022, published 2024)
